In patent publication US6403123B1, “Method for topical treatment of anthralin-responsive dermatological disorders” (priority 2000, dated 2002):

Key:
Assay type in all cases: in vivo, human
[1] = tested on: psoriasis; assay: Topical treatment of psoriasis patients by the method: anthralin formulation, then wax formulation, then talc powder; conditions: person
Excerpt: In accordance with the present invention, the anthralin formulation is first topically applied to the involved skin area, or skin lesions, such as psoriatic plaques or eczema, of a patient in need of such treatment. […] The anthralin formulation may be applied by any means which provides a relatively uniform layer of anthralin formulation on the involved area. Suitable means of application include spraying, roll-on, and application using a brush, saturated cotton gauze, pad, sponge-tipped applicator, and the like. As the anthralin formulation penetrates into the lesions or evaporates, any unabsorbed anthralin formulation on the lesion surface can be wiped off with a tissue, paper towel, cloth or the like. Thereafter, a wax formulation is applied to the lesion to cover the anthralin formulation-treated area. The wax formulation may be applied using any application method that allows for applying a relatively uniform layer of the wax formulation. Such application methods include, but are not limited to, spraying, roll-on, and application by brush, cotton gauze, pad, sponge-tipped applicator, and the like. As the vehicle(s) of the wax formulation evaporate, a thin film of wax will be formed to cover the lesion surface of the involved area. […] Finally, a powder, such as talc, may then be optionally applied over the wax film in order to eliminate any remaining anthralin thereby further ensuring that staining of clothing or other objects is avoided. […] The powder may be applied by dusting using a puff or pad, sprinkling, spreading and the like. The method was typically carried out as follows. A liquid anthralin formulation as formulated in Example 1(A) was topically applied to skin lesions once to twice daily by the patient using a saturated cotton pad. As the anthralin penetrated into the lesions and the solvents evaporated, a tissue or paper towel was used to wipe off excess materials from the surface of the lesions. The wax formulation as formulated in Example 2(B) was topically applied to the lesions. […]

[2] = Staining of skin and clothing and skin irritation during the topical anthralin method
Excerpt: As the anthralin formulation penetrates into the lesions or evaporates, any unabsorbed anthralin formulation on the lesion surface can be wiped off with a tissue, paper towel, cloth or the like. Thereafter, a wax formulation is applied to the lesion to cover the anthralin formulation-treated area. The wax formulation may be applied using any application method that allows for applying a relatively uniform layer of the wax formulation. Such application methods include, but are not limited to, spraying, roll-on, and application by brush, cotton gauze, pad, sponge-tipped applicator, and the like. As the vehicle(s) of the wax formulation evaporate, a thin film of wax will be formed to cover the lesion surface of the involved area. There are two advantages to the presence of the wax film: (a) the thin wax film will act as an occlusive backing to drive the penetration of anthralin deeper into the lesions; and (b) the wax film will prevent any trace amounts of anthralin from contacting clothing or other objects.
Finally, a powder, such as talc, may then be optionally applied over the wax film in order to eliminate any remaining anthralin thereby further ensuring that staining of clothing or other objects is avoided. […]

[3] = tested on: psoriasis; assay: Earlier or concurrent treatment of the psoriasis subjects with other drugs (case histories); conditions: person

O=C1c2c(O)cccc2Cc2cccc(O)c21 [anthralin, 1,8,9,-anthracenetriol]
improvement of the psoriasis ([1]; Example 6, anthralin 0.2% increased to 1% by weight, once daily, maintained over one year): approximately 90%
skin free of psoriasis ([1]; Example 7, anthralin 0.3% increased to 0.6% by weight, once daily, after four months): approximately 90%
improvement of psoriatic lesions ([1]; Example 8, small plaque psoriasis, 3% anthralin formulation once daily, after four months): approximately 75%
staining of clothes ([2]; Example 10, 0.25% anthralin, wax formulation Example 2(B), fine talc, twice a day for four weeks): no staining of their clothes
skin irritation and staining to the skin and clothing ([2]; typical case, about 0.1% to about 0.2% by weight anthralin, once or twice daily on chronic psoriatic plaques): without skin irritation and staining to the skin and clothing

C=C1/C(=C\C=C2/CCC[C@]3(C)[C@@H]([C@H](C)/C=C/[C@@H](O)C4CC4)CC[C@@H]23)C[C@@H](O)C[C@@H]1O [calcipotriene]
response of plaque psoriasis ([3]; Example 6, plaque psoriasis for four years, topical treatment): did not improve well
response of generalized small plaque psoriasis ([3]; Example 7, psoriasis for seventeen years, topical treatment): did not respond

CN(Cc1cnc2nc(N)nc(N)c2n1)c1ccc(C(=O)N[C@@H](CCC(=O)O)C(=O)O)cc1 [methotrexate]
improvement of lesions ([3]; Example 5, generalized plaque psoriasis, intramuscular injections every one to four weeks): approximately 50%
